IC50 and EC50 data for eight compounds are collected here from patent US20120225062A1 (priority 2011, published 2012).

In one test the target is Pim 2 (Homo sapiens, UniProt Q9P1W9). Description: Pim 2 AlphaScreen assay (high ATP). (In general: Bead proximity is the source of the signal in Alpha formats.)
Test [1] relates to KMS11 (human myeloma cell line). Description: Cell Proliferation Assay (CellTiter-Glo, 3 days). The conditions noted are these: KMS-11, 72 h, KMS11-luc cells. The test is classed as cell-based. The procedure, abridged:
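KMS11 myeloma cells, 2000 per well in IMDM with 10% FBS, exposed to compound for 3 days at 37° C. Viability read by CellTiter-Glo luminescence; EC50 derived.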

For another test, the target named is Pim 3 (Homo sapiens, UniProt Q86V86). Description: Pim 3 AlphaScreen assay (high ATP).
The target in the next test is Pim 1 (Homo sapiens, UniProt P11309). Description: Pim 1 AlphaScreen assay (high ATP).
Sequence of Pim 1 (P11309 whole entry): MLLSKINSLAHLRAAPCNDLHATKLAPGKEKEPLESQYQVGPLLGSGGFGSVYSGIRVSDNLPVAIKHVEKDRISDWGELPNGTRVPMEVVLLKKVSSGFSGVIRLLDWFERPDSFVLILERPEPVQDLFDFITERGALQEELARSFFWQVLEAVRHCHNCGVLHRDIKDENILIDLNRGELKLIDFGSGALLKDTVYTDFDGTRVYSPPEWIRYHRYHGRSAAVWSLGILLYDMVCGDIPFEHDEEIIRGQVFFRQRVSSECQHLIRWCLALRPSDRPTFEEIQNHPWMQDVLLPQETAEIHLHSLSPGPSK

Sequence of Pim 2 (Q9P1W9 whole entry): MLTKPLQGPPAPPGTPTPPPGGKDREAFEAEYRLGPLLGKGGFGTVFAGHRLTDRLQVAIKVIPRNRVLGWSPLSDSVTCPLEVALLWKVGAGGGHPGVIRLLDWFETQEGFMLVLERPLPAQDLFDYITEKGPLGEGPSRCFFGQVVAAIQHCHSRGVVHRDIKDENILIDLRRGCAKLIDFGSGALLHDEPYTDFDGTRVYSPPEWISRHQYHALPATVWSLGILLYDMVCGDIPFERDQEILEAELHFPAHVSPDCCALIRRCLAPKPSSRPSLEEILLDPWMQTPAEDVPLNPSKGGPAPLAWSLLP
Experimental for Pim 3: The activity of Pim 1, Pim 2, & Pim 3 is measured using a homogeneous bead based system quantifying the amount of phosphorylated peptide substrate resulting from kinase-catalyzed phosphoryl transfer to a peptide substrate. Compounds to be tested are dissolved in 100% DMSO and directly distributed to a white 384-well plate at 0.25 μl per well. […] This is followed by the addition of 5 μl/well of Pim 1, Pim 2 or Pim 3 kinase in assay buffer (concentrations described below). Final assay concentrations (described below) are in 2.5% DMSO. The reactions are performed for ˜2 hours, then stopped by the addition of 10 μl of 0.75 μg/ml anti-phospho Ser/Thr antibody (Cell Signaling), 10 μg/ml Protein A AlphaScreen beads (Perkin Elmer), and 10 μg/ml streptavidin coated AlphaScreen beads in stop/detection buffer (50 mM EDTA, 95 mM Tris, pH=7.5, 0.01% Tween-20). The stopped reactions are incubated overnight in the dark. The phosphorylated peptide is detected via an oxygen anion initiated chemiluminescence/fluorescence cascade using the Envision plate reader (Perkin Elmer).

Regarding `C[C@H]1CN(c2ccncc2NC(=O)c2ccc(F)c(-c3c(F)cc(OCC(F)(F)F)cc3F)n2)C[C@@H](N)[C@@H]1O` [Example 198, N-(4-((3R,4R,5S)-3-amino-4-hydroxy-5-methylpiperidin-1-yl)pyridin-3-yl)-6-(2,6-difluoro-4-(2,2,2-trifluoroethoxy)phenyl)-5-fluoropicolinamide], the IC50 on Pim 2 was 0.33 nM; against Pim 3, 0.17 nM; against Pim 1, 0.01 nM. Further, in test [1], the EC50 came to 98 nM.
In the same order, the values of `C[C@H]1C[C@@H](c2ccncc2NC(=O)c2ccc(F)c(-c3c(F)cc(COC4CCOCC4)cc3F)n2)C[C@@H](N)[C@@H]1O` [Example 138, N-(4-((1R,3R,4R,5S)-3-amino-4-hydroxy-5-methylcyclohexyl)pyridin-3-yl)-6-(2,6-difluoro-4-((tetrahydro-2H-pyran-4-yloxy)methyl)phenyl)-5-fluoropicolinamide] are 3.3 nM, 2.39 nM, 0.08 nM and 324 nM.
The like results for `C[C@H]1CN(c2ccncc2NC(=O)c2ccc(F)c(-c3c(F)cc(OCC4CCOCC4)cc3F)n2)C[C@@H](N)[C@@H]1O` [Example 200, N-(4-((3R,4R,5S)-3-amino-4-hydroxy-5-methylpiperidin-1-yl)pyridin-3-yl)-6-(2,6-difluoro-4-((tetrahydro-2H-pyran-4-yl)methoxy)phenyl)-5-fluoropicolinamide] were, in that order, 0.56 nM, 0.19 nM, 0.01 nM and 82 nM.
`C[C@H]1CN(c2ccncc2NC(=O)c2ccc(F)c(-c3c(F)cc(CC(C)(C)O)cc3F)n2)C[C@@H](N)[C@@H]1O` [Example 131, N-(4-((3R,4R,5S)-3-amino-4-hydroxy-5-methylpiperidin-1-yl)pyridin-3-yl)-6-(2,6-difluoro-4-(2-hydroxy-2-methylpropyl)phenyl)-5-fluoropicolinamide]: the concentration for half-maximal inhibition (IC50) on Pim 2 amounted to 1.31 nM; on Pim 3, 0.18 nM; against Pim 1, 0.01 nM. The same compound showed an EC50 in test [1] of 25 nM.
The like results for `C[C@@H]1C[C@H](N)C[C@H](c2ccncc2NC(=O)c2ccc(F)c(-c3c(F)cc(C(C)(C)C#N)cc3F)n2)C1` [Example 164, N-(4-((1R,3S,5S)-3-amino-5-methylcyclohexyl)pyridin-3-yl)-6-(4-(2-cyanopropan-2-yl)-2,6-difluorophenyl)-5-fluoropicolinamide] were, in that order, 2.13 nM, 2.04 nM, 0.02 nM and 88 nM.
In the same order, the values of `COC(C)(C)COc1cc(F)c(-c2nc(C(=O)Nc3cnccc3[C@@H]3C[C@H](C)C[C@H](N)C3)ccc2F)c(F)c1` [Example 46, N-(4-((1R,3S,5S)-3-amino-5-methylcyclohexyl)pyridin-3-yl)-6-(2,6-difluoro-4-(2-methoxy-2-methylpropoxy)phenyl)-5-fluoropicolinamide] are 2.77 nM, 0.85 nM, 0.02 nM and 84 nM.
The like results for `C[C@H]1C[C@@H](c2ccncc2NC(=O)c2ccc(F)c(-c3c(F)cc(OCC4CC4)cc3F)n2)C[C@@H](N)[C@@H]1O` [Example 42, N-(4-((1R,3R,4R,5S)-3-amino-4-hydroxy-5-methylcyclohexyl)pyridin-3-yl)-6-(4-(cyclopropylmethoxy)-2,6-difluorophenyl)-5-fluoropicolinamide] were, in that order, 2.77 nM, 0.8 nM, 0.03 nM and 139 nM.
For the compound `C[C@H]1CN(c2ccncc2NC(=O)c2ccc(F)c(-c3c(F)cc(C4CCOCC4)cc3F)n2)C[C@@H](N)[C@@H]1O` [Example 99, N-(4-((3R,4R,5S)-3-amino-4-hydroxy-5-methylpiperidin-1-yl)pyridin-3-yl)-6-(2,6-difluoro-4-(tetrahydro-2H-pyran-4-yl)phenyl)-5-fluoropicolinamide], the IC50 was 0.57 nM against Pim 2, 0.12 nM against Pim 3 and 0.01 nM at Pim 1. The same compound displayed an EC50 in test [1] of 10 nM.

A word on the IC50: it is the concentration at which inhibition is half-maximal. The low end stands for greater potency in that assay, the high end for weaker potency in that assay. As usually defined, the EC50 is the concentration giving half of the maximal effect.
